The values that follow are results of earlier work, collected in patent US20040048871A1, “Use of high dose intravenous methotrexate, with leucovorin rescue, to treat early multiple sclerosis and other diseases of the central nervous system” (priority 2002, published 2004).

For data set [1] the following is noted: in vivo.
The conditions of data set [2]: for crossing of the blood brain barrier (BBB): in vivo.
The conditions of data set [3]: 8 g/m^2, four hour IV infusion, with leucovorin rescue.
For data set [4] the following is noted: 2.5 g/m^2 sporadically via IV infusion, with leucovorin rescue.
Where [5] appears, read: low-dose methotrexate 7.5 mg/week, orally.

Like-named read-outs stand apart in the source and are kept apart here.

As to `O=P1(N(CCCl)CCCl)NCCCO1` (centres unmarked) [cyclophosphamide], the “efficacy against the progression of MS” value in data set [1] is on record as “some efficacy”. In data set [2], the “crossing of the blood brain barrier (BBB)” value (from here on “crossing”) is “do not cross the blood brain barrier”.
In the case of `Nc1nc2c(c(=O)[nH]1)N(C=O)C(CNc1ccc(C(=O)N[C@@H](CCC(=O)O)C(=O)O)cc1)CN2` (some centres unmarked) [leucovorin], the “crossing” value in data set [2] was “does not penetrate the BBB”.
As to `CN(Cc1cnc2nc(N)nc(N)c2n1)c1ccc(C(=O)N[C@@H](CCC(=O)O)C(=O)O)cc1` [methotrexate], in data set [3], the “results in treating CNS lymphomas” value is reported as “promising results” and the toxicity entry is given as “low toxicity”. For the same compound, under setting [5], the “effect on the course of progressive MS” value was “impact the course of progressive MS” and the toxicity result is recorded as “minimal toxicity”. Also, the “upper extremity strength in MS patients” value (oral methotrexate treatments) is reported as “mild improvement”. Besides, the “serum level sufficient to cross the BBB in cytotoxic amounts” value in data set [2] (administered orally) is reported as “not sufficient to cross the BBB in cytotoxic amounts”. Also, the toxicity entry in data set [4] was “no significant toxicity”.
Turning to `O=C1c2c(O)ccc(O)c2C(=O)c2c(NCCNCCO)ccc(NCCNCCO)c21` [mitoxantrone], in data set [2], the “crossing” value is “do not cross the blood brain barrier”.
